Tests used:
[1] = tested on: MEFs; test: Stimulation of serum-starved MEFs with growth factors or serum (Ezh2, Ndy1, miR-101 levels); format: cell-based, mouse
Method: MEFs were transfected with control siRNA and stimulated with serum (10%) for 1, 4, 12 and 18 hours. (upper) Nuclear extracts were probed with antibody specific for Ezh2 and for CREB, levels of which served as loading control. (lower) Ndy1 and Ezh2 mRNA levels were measured with real time RT-PCR; GAPDH mRNA levels were used as internal control. Data are expressed as mean±SD.
Serum starved MEFs were stimulated with each of FGF-2 (20 ng/ml), IGF-1 (20 ng/ml), PDGF (20 ng/ml), serum (10%), VEGF (20 ng/ml), EGF (20 ng/ml) or TNFα (50 ng/ml). Nuclear extracts were probed with antibody specific for Ezh2 and for CREB, levels of which served as loading control.
Data are expressed as mean±SD.
MEFs transfected with control siRNA were stimulated with FGF-2 for 1, 4, 12 or 18 hours. (upper) Nuclear extracts were probed with antibody specific for Ezh2. CREB levels served as loading control. (middle) Ndy1 and Ezh2 mRNA were measured with real time RT-PCR; GAPDH mRNA levels were used as internal control. Data are expressed as mean±SD. (lower) miR-101 levels were measured with real time RT-PCR; U6 small nuclear RNA levels were used as internal control. Data are expressed as mean±SD.
For stimulation with FGF-2 (Cell signalling, catalog number 8910), IGF-1 (R&D Systems, catalog number 791-MG), PDGF (Cell signalling, catalog number 9909), VEGF (R&D systems, catalog number 493-MV), EGF (R&D systems, catalog number 236-EG), TNFα (Cell Signalling, catalog number 2169), cells were serum starved for 16 hours and growth factors were added at a final concentration of 20 ng/ml each, for 24 hours.
To identify a pathway regulating Ezh2 expression via the Ndy1/miR-101 axis, serum-starved MEFs were stimulated with FGF-2, IGF-1, PDGF, EGF, VEGF, TNFα or serum and were examined for expression of Ezh2, Ndy1 and miR-101 before and 24 hours after stimulation. […] This was confirmed with analyses in which FGF-2 was used to stimulate serum-starved MEFs transfected with a control siRNA or siRNA for Ndy1 (FIG. 36).

[2] = tested on: MEFs; test: FGF-2-induced proliferation and migration of MEFs (MTT, transwell filter, wound healing); format: cell-based, mouse
Description: FGF-2 stimulation induces both proliferation and migration in various cell types. To determine the role of Ndy1 in FGF-2-driven proliferation and migration, FGF-2 was used to stimulate serum-starved MEFs which were transfected with control RNA, siRNA for Ndy1, miR-101 or with siRNA for Ndy1+miR-101.
To determine cell number, the 3-[4,5-dimethylthiazol-2-yl]-2,5-[…] bromide (MTT, Invitrogen, catalog number M6494) assay was used as described in Polytarchou, C et al., 2005 J. Biol. Chem. 280: 40428-35. Cells were seeded at 2×10^4 cells/well in 24-well tissue culture plates. Twenty-four hours later, cells were serum-starved in medium without FBS for 16 h. Culture medium was replaced with fresh medium containing FGF-2 or control carrier, and the number of cells was determined. Results were confirmed by direct counting of cells under the microscope, using a standard hemocytometer.
Migration assays were performed using 24-well microchemotaxis chambers (Costar) with uncoated polycarbonate membranes (pore size 8 μm). Briefly, cells were harvested and resuspended at 5×10^4 cells/0.15 ml in DMEM containing 0.25% BSA. The bottom chamber of each transwell unit contained 0.6 ml of DMEM supplemented with 0.25% BSA and FGF-2 (20 ng/ml) or carrier as a control. The plates were incubated for 6 h at 37° C. and the filters were fixed with 4% paraformaldehyde in PBS and stained with 0.1% crystal violet solution. The cells that migrated through the filter were counted using a grid and an Optech microscope at 20× magnification.
To assay wound healing, cells were plated on 6-well plates, incubated in DMEM containing 10% FBS until confluence and were serum starved for 16 hours. Wounds were introduced to the confluent cell monolayer with a plastic pipette tip. Wells were washed three times to remove floating cells, and were cultured in DMEM without FBS, in the presence or absence of FGF-2 (20 ng/ml). Twelve and twenty four hours later, the wound area was photographed using a Nikon Phase Contrast-2 ELWD 0.3 Diaphot TMD inverted microscope with a 10× objective and a Spot charge-coupled-device camera (Diagnostic Instruments).

[3] = tested on: Ndy1; test: siRNA knock down in MEFs (Western blot, real time PCR of p16Ink4a, p19Arf, Ezh2, miR-101); format: cell-based, mouse
Method: At a time point four days after transfection cells were analyzed by Western blotting and total mRNA was collected and analyzed by real-time PCR with primers specific for p16^Ink4a and p19^Arf and primers specific for the long and short forms of Ndy1. (n=3)*p<0.05
(§1) MEFs overexpressing Ndy1 or Ndy2 and MEFs in which Ndy1 was knocked down with siRNA (1433-[…]-1454, SEQ ID NO: 1), were monitored for senescence by light microscopy and β-galactosidase staining and by cell counting at each passage. Transfection of siRNA was carried out using Lipofectamine 2000 (Invitrogen; Carlsbad, Calif.). Knockdown of Ndy1 was confirmed by Western blotting and real time RTPCR.
For siRNA. MEFs transfected with Ndy1 (1433-[…]-1454; SEQ ID NO: 51) or control siRNA (Dharmacon) were plated at 10^5 cells per 6 cm dish and 3-4 days later were harvested and analyzed (Pfau, R., et al. (2008) Proc Natl Acad Sci USA 105, 1907-12, incorporated herein by reference in its entirety). MEFs were transfected with the help of Lipofectamine 2000 (Invitrogen). To specifically knock down the short form of Ndy1 the following siRNA were used: 5′-[…]-′3 (SEQ ID NO: 52) which specifically targets the exon1 of the v2 isoform of Ndy1 (NM_013910). siRNAs for Ezh2 (a mix of two siRNAs form Applied Biosystems, #AM16708 siID #157427 and #157426) and Bmi-1 (Santa Cruz Biotechnologies, # sc-29815) were used in a final concentration of 80 nM.

[4] = tested on: MEFs; test: Senescence of MEFs after Ndy1 siRNA (cell counting, β-galactosidase staining); format: cell-based, mouse
Method: as §1
MEFs transfected with Ndy1 (1433-[…]-1454) or control siRNA (Dharmacon; Chicago, Ill.) were plated in triplicate at 10^5 cells per well in 6 well dishes, and three days later they were counted, re-transfected and replated at 10^5 cells per well. At day 6, cells were photographed, counted and stained for the β-galactosidase (Pierce #9860; Rockford, Ill.). β-galactosidase staining of the cells infected with the retroviral constructs and the siRNA-treated cells was performed using X-gal and a β-galactosidase staining kit (Pierce #9860).
To determine whether endogenous Ndy1 is a physiological regulator of senescence, passage 3 wild type MEFs and passage-8 MEFs overexpressing Ndy1 were transfected with Ndy1 or control siRNA. […] The transfected cells were passaged twice, and cell proliferation was monitored by counting the cells at each passage. Cell morphology and β-galactosidase staining were recorded after the second passage (FIG. 10 panel B, FIG. 10 panel C and FIG. 10 panel D). […]

[5] = tested on: TCCSUP, WIDR, SKOV3, T24, NCI522; test: Ndy1 siRNA in cancer cell lines expressing high levels of FGF-2; format: cell-based, human; conditions: five of eight high FGF-2 cell lines, 48 hours after transfection
Method: RNAs were transfected with Lipofectamine 2000 (Invitrogen, catalog number 11668-027) in MEFs and DharmaFect 3 (Dharmacon, catalog number T-2003-03) in cancer cell lines, according to the manufacturers' instructions (80 nM final concentration).
These eight high FGF-2 expressing cell lines were then transfected with siRNA for Ndy1 or a control siRNA. Nuclear extracts of these cells, collected 48 hours after the transfection, were probed with antibodies specific for each of Ndy1, Ezh2 and CREB. RNA isolated from these cells was analyzed by real time RT-PCR for abundance of microRNA miR-101. […] The five cell lines were obtained from patients having each of transitional cell carcinoma, lung cancer, colon cancer, ovarian cancer, and bladder cancer.

[6] = tested on: Human Umbilical cord Vein Endothelial Cells; test: In vitro tube formation assay; format: cell-based; conditions: HUVECs, FGF-2 20 ng/ml, 6 h
Method: HUVECs were transduced with a myc.Ezh2 expression construct, or with the empty vector (EV) and were subsequently transduced with either shRNA for Ndy1 or with a lentiviral-based control shRNA. (upper-first row) Tube formation on Cultrex-RGF-BME without FGF-2. (upper-second row) Tube formation on Cultrex-RGF-BME in the presence of 20 ng/ml FGF-2. (upper-third row) Tube formation on reduced-growth factor-Matrigel in the presence of 5 μM of the angiogenesis inhibitor sulphoraphane. (lower) Quantitation of tube formation was performed with the Angioquant software. Relative tube formation was calculated as the ratio of total capillary tube length in cells with or without FGF-2 normalized to total capillary tube length of EV cells without FGF-2 and set to 1 for total capillary tube length of EV cells without FGF-2. Data are expressed as mean±SD.
HUVECs were then transduced with a pBabe-based retrovirus construct of myc-Ezh2. Cells transduced with the empty pBabe vector (EV) were used as a negative control. […]
The in vitro tube formation assay was performed using the In Vitro Angiogenesis Assay Kit (Trevigen, catalog number 3470-096-K). […] After 6 h of incubation at 37° C., the medium was removed, the cells were fixed and stained with Calcein AM, and the total length of capillary tubes was measured in the total area of the wells using image analysis software (Angioquant). […]

[7] = MEFs cultured under standard conditions
[8] = MEFs transfected with control siRNA, FGF-2 for 1, 4, 12 or 18 hours
[9] = serum-starved MEFs, 24 hours after stimulation
[10] = serum-starved MEFs transfected with control RNA

How did the “serum-stimulated Ezh2 upregulation” value ([1]; MEFs transfected with siRNA for Ndy1, serum stimulation) turn out when “1433-GUGGACUCACCUUACCGAAUU-1454 [Ndy1 siRNA]” was run?
Its value is “not affected”.

What about the FGF-2 driven proliferation ([2]; MEFs overexpressing myc.Ezh2) of the same substance?
The FGF-2 driven proliferation was “no effect”.

And the “directional and random FGF-2 driven cell motility” value ([2]; MEFs overexpressing myc.Ezh2)?
Its value is “remained unaffected”.

And the “FGF-2-induced Ezh2 upregulation” value ([2]; MEFs, 48 hour time point under FGF-2)?
The value was “sufficient to block”.

And the “FGF-2 effect on proliferation and migration” value ([2]; serum-starved MEFs stimulated with FGF-2)?
Its value is “greatly limited”.

And the “expression of Ezh2” value [3, 7]?
The value was “down-regulates, slightly”.

And the “expression of miR-101” value [3, 7]?
Its value is “does not affect”.

What about the “p16Ink4a (Western blot)” value ([3]; passage 2 MEFs, transient knock down, 4 days) of the same substance?
The value was “relatively slight upregulation”.

What about the “increase of expression of p16Ink4a” value ([3]; passage 3 MEFs, four days after transfection) of the same substance?
Its value is “about 2.3 times”.

And the “expression of Ezh2” value ([3]; passage 3 MEFs, four days after transfection (FIG. 17 panel B))?
Its value is “decreases”.

What about the “endogenous and exogenous Ndy1 (Western blotting)” value ([3]; passage 3 wild type MEFs and passage-8 MEFs overexpressing Ndy1) of the same substance?
Its value is “downregulation”.

What about the senescence [4] of the same substance?
The senescence was “promote senescence”.

And the Ezh2 [5]?
Its Ezh2 is “downregulated”.

What about the “expression of miR-101” value [5] of the same substance?
Its value is “upregulating”.

“FGF-2: Fibroblast growth factor-2 (FGF-2) or basic fibroblast growth factor” was tested. Which Ezh2 [1, 8] did it give?
The Ezh2 was “upregulates”.

And the Ndy1 [1, 8]?
Its Ndy1 is “upregulates”.

What about the miR-101 [1, 8] of the same substance?
The miR-101 was “down-regulates”.

And the “expression of Ndy1” value [1, 9]?
Its value is “promoted”.

What about the “level at which Ezh2 expression is induced” value [1, 9] of the same substance?
Its value is “primarily at the protein level”.

And the miR-101 [1, 9]?
Its miR-101 is “downregulating”.

And the Ezh2 expression ([1]; serum-starved MEFs, 24 hours after stimulation, 20 ng/ml (serum 10%))?
The Ezh2 expression was “significantly upregulated”.

What about the “directional and random migration” value [2, 10] of the same substance?
Its value is “increase”.

What about the proliferation rate [2, 10] of the same substance?
The proliferation rate was “increase”.

What about the “total length of the capillary tubes formed” value [6] of the same substance?
The value was “increase”.
